The values that follow come from US12187742B2 (XRAD Therapeutics, Inc., priority 2018, dated 2025).

One assay has as its target ATM (Homo sapiens (Human), UniProt Q13315). Description: ATM in Cell Western Assay (pKAP1 in etoposide-treated MCF-7 cells). In kind it is cell-based. The method, boiled down:
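After paraformaldehyde fixation and Triton X-100 permeabilization, immunostained plates were read by infrared scanning (ODYSSEY CLx). Compound was given as 10 doses, 3-fold dilutions from a 1 μM final top concentration.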

The next assay concerns the target DNA-PK (Homo sapiens (Human), UniProt P78527). Description: DNA-PK Enzyme-Linked Immunosorbent Assay (phosphorylation of GST-p53 (1-101) peptide). Particulars: ELISA. In kind it is biochemical. The method, boiled down: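 Inhibition measured by 450 nm absorbance after HRP/TMB detection of phospho-Ser15 on immobilized GST-p53 (1-101). The kinase reaction used 0.1 μg/mL DNA-PK and 20 μM ATP, 1 h at 25 °C. Ten 3-fold compound dilutions, top final concentration 100 nM.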

Where [1] appears, read: MCF-7 cells, etoposide 100 μM, 1 hr, pKAP1 readout.
[2] abbreviates: pKAP1 in etoposide-treated MCF-7 cells.

Counter-ions that a name gives are not always drawn.

Chain of ATM (Q13315 whole entry): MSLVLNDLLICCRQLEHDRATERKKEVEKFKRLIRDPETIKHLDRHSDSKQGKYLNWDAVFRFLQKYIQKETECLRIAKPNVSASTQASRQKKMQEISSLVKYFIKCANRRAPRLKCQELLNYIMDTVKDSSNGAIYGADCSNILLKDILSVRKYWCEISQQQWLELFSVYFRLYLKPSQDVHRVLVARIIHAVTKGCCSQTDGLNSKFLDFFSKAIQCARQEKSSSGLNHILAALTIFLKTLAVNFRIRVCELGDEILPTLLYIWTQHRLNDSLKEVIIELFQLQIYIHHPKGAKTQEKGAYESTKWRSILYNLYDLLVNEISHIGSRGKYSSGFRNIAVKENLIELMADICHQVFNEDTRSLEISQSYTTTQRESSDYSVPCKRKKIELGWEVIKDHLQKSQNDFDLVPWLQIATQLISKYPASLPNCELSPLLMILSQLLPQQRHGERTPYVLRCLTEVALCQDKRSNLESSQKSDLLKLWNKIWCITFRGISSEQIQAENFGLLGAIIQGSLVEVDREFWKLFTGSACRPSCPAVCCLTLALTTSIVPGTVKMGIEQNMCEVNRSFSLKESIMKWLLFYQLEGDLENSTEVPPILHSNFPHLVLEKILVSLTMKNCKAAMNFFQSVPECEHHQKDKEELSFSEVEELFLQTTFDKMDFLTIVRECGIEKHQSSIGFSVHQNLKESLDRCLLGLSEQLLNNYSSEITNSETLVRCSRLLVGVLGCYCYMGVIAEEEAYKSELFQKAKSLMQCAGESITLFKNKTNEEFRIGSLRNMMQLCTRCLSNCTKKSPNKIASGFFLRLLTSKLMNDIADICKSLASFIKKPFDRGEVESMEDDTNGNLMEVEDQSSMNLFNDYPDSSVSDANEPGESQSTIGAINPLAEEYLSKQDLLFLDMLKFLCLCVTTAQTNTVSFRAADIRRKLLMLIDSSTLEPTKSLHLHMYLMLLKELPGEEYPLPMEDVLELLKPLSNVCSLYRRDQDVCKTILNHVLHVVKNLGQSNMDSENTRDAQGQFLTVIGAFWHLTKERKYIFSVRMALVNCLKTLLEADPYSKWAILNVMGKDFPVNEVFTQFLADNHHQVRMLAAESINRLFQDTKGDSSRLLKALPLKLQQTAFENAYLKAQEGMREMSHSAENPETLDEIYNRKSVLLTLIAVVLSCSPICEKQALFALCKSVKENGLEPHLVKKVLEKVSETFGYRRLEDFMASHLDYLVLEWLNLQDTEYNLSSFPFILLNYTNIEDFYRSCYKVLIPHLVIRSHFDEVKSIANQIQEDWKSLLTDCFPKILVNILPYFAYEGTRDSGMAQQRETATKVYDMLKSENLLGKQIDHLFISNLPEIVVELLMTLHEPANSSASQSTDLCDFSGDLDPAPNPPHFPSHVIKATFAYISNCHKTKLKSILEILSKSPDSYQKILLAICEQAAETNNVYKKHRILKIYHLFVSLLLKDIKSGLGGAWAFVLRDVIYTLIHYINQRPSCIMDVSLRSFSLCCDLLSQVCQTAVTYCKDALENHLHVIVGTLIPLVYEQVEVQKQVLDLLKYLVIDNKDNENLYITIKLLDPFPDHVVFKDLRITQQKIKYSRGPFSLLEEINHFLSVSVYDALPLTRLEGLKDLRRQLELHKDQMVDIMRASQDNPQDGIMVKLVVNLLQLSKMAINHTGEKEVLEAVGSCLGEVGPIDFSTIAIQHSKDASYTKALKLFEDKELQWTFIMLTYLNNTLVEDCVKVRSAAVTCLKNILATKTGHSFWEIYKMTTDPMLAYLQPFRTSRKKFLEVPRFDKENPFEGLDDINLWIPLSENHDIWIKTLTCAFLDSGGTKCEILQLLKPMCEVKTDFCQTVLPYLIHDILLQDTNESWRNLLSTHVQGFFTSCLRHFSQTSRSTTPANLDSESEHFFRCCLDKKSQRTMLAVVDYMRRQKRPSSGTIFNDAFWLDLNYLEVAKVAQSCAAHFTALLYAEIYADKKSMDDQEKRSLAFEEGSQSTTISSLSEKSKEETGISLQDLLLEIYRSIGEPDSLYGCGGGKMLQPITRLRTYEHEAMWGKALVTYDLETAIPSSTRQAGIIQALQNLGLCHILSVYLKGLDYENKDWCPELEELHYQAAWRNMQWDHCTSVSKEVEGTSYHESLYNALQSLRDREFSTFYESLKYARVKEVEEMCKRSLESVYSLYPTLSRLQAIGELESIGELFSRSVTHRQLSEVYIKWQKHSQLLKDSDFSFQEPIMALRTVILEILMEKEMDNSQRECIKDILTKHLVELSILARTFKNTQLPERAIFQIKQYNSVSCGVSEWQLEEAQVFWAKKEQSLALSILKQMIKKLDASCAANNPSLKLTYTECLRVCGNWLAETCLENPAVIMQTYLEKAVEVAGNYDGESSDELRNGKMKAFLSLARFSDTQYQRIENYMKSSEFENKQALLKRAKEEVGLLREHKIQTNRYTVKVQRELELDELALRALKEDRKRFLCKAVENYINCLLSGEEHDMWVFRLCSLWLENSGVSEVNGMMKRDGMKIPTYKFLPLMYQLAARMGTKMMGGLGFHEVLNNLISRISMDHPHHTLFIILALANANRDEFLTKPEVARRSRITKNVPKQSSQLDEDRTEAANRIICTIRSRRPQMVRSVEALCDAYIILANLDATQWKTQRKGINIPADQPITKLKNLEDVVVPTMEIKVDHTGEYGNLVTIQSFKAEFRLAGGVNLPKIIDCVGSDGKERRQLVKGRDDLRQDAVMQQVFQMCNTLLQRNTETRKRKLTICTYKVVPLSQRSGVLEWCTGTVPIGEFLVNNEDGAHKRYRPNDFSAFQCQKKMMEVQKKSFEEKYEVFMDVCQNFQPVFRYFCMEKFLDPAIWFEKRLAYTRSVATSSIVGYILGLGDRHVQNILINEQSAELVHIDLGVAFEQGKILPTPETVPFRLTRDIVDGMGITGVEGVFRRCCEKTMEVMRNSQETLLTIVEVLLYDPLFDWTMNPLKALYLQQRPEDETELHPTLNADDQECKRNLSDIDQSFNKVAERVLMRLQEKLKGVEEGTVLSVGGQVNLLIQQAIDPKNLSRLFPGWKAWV

For orientation: IC50 means the midpoint of a concentration-inhibition curve. High values mean weaker potency, low ones greater potency. `CNC1CN(c2ncc(-c3cc4c5c(cnc4cc3F)N(C)C(=O)C53CCC3)cc2NS(=O)(=O)N(C)C)C1` [Example 332, 8′-{5-[(Dimethylsulfamoyl)amino]-6-[3-(methylamino)azetidin-1-yl]pyridin-3-yl}-7′-fluoro-3′-methyl-2′,3′-dihydrospiro[cyclobutane-1,1′-pyrrolo[2,3-c]quinoline]-2′-one]: the IC50 on ATM (setting [1]) and against DNA-PK (ATP 20 μM) was 1 to 100 nM throughout.
Regarding `CNC1CN(c2ncc(-c3cc4c5c(cnc4cc3F)N(C)C(=O)C53CCC3)cc2NS(=O)(=O)C2CC2)C1` [Example 333, N-(5-(7′-Fluoro-3′-methyl-2′-oxo-2′,3′-dihydrospiro [cyclobutane-1,1′-pyrrolo [2,3-c]quinolin]-8′-yl)-2-(3-(methylamino)azetidin-1-yl)pyridin-3-yl)cyclopropanesulfonamide], the IC50 against ATM (setting [1]) and on DNA-PK (ATP 20 μM) was 0.5 to 1 nM throughout.
With `CCS(=O)(=O)Nc1cc(-c2cc3c4c(cnc3cc2F)N(C)C(=O)C42CCC2)cnc1N1CC(NC)C1` [Example 334], the results for the half-maximal inhibitory concentration (IC50) at ATM (setting [1]) and on DNA-PK (ATP 20 μM) were 1 to 100 nM and 0.5 to 1 nM, respectively.
Regarding `Cc1ncc(S(=O)(=O)Nc2cc(-c3ccc4ncc5c(c4c3)C3(CCC3)C(=O)N5C)cnc2N2CC(N(C)C)C2)s1` [Example 338, N-(2-(3-(Dimethylamino)azetidin-1-yl)-5-(3′-methyl-2′-oxo-2′,3′-dihydrospiro[cyclobutane-1,1′-pyrrolo[2,3-c]quinolin]-8′-yl)pyridin-3-yl)-2-methylthiazole-5-sulfonamide], the IC50 against ATM (setting [2]) and against DNA-PK (20 μM ATP) was 1 to 100 nM in each case.
For the compound `CCN(C)S(=O)(=O)Nc1cc(-c2ccc3ncc4c(c3c2)C2(CCC2)C(=O)N4C)cnc1N1CC(N(C)C)C1` [Example 339, 8′-{6-[3-(Dimethylamino)azetidin-1-yl]-5-{[ethyl(methyl)sulfamoyl]amino}pyridin-3-yl}-3′-methyl-2′,3′-dihydrospiro [cyclobutane-1,1′-pyrrolo[2,3-c]quinoline]-2′-one], the IC50 against ATM (setting [2]) and at DNA-PK (20 μM ATP) was 1 to 100 nM each time.
In the case of `CCS(=O)(=O)Nc1cc(-c2cc3c4c(cnc3cc2F)N(C)C(=O)C42CCC2)cnc1N1CC(N(C)C)C1` [Example 343, N-(2-(3-(Dimethylamino)azetidin-1-yl)-5-(7′-fluoro-3′-methyl-2′-oxo-2′,3′-dihydrospiro[cyclobutane-1,1′-pyrrolo[2,3-c]quinolin]-8′-yl)pyridin-3-yl)ethanesulfonamide formate], the IC50 against ATM (setting [2]) and against DNA-PK (20 μM ATP) was 1 to 100 nM in each case.
As to `CN1CC2CN(c3ncc(-c4ccc5ncc6c(c5c4)C4(CCC4)C(=O)N6C)cc3NS(C)(=O)=O)CC2C1` (stereo not drawn) [Example 350, N-(5-(3′-Methyl-2′-oxo-2′,3′-dihydrospiro[cyclobutane-1,1′-pyrrolo[2,3-c]quinolin]-8′-yl)-2-(5-methylhexahydropyrrolo[3,4-c]pyrrol-2(1H)-yl)pyridin-3-yl)methanesulfonamide formate], the IC50 against ATM (setting [2]) and at DNA-PK (20 μM ATP) was 1 to 100 nM throughout.
Turning to `CN1C(=O)C2(CCC2)c2c1cnc1ccc(-c3cnc(N4CCC(N5CCOCC5)CC4)c(NS(=O)(=O)N(C)C)c3)cc21` [Example 355, 8′-{5-[(Dimethylsulfamoyl)amino]-6-[4-(morpholin-4-yl)piperidin-1-yl]pyridin-3-yl}-3′-methyl-2′,3′-dihydrospiro[cyclobutane-1,1′-pyrrolo[2,3-c]quinoline]-2′-one], the IC50 against ATM (setting [2]) and on DNA-PK (20 μM ATP) was 1 to 100 nM throughout.
As for `CN1C(=O)C2(CCC2)c2c1cnc1ccc(-c3cnc(N4CCC(N5CCOCC5)CC4)c(NS(=O)(=O)C4CC4)c3)cc21` [Example 356, N-(5-(3′-Methyl-2′-oxo-2′,3′-dihydrospiro[cyclobutane-1,1′-pyrrolo[2,3-c]quinolin]-8′-yl)-2-(4-morpholinopiperidin-l-yl)pyridin-3-yl)cyclopropanesulfonamide hydrochloride], the IC50 was below 0.5 nM against ATM (setting [2]) and 0.5 to 1 nM on DNA-PK (20 μM ATP).
Consider `CN1C(=O)C2(CCC2)c2c1cnc1ccc(-c3cnc(N4CCC(N5CCOCC5)CC4)c(NS(C)(=O)=O)c3)cc21` [Example 357, N-(5-(3′-Methyl-2′-oxo-2′,3′-dihydrospiro[cyclobutane-1,1′-pyrrolo[2,3-c]quinolin]-8′-yl)-2-(4-morpholinopiperidin-l-yl)Pyridin-3-yl)methanesulfonamide hydrochloride], for which the IC50 at ATM (setting [2]) and on DNA-PK (20 μM ATP) was 0.5 to 1 nM in each case.
For the compound `CN1C(=O)C2(CCC2)c2c1cnc1cc(F)c(-c3cnc(N4CCC(N5CCCCC5)CC4)c(NS(C)(=O)=O)c3)cc21` [Example 358, N-(2-([1,4-Bipiperidin]-1′-yl)-5-(7′-fluoro-3′-methyl-2′-oxo-2′,3′-dihydrospiro[cyclobutane-1,1′-pyrrolo[2,3-c]quinolin]-8′-yl)pyridin-3-yl)methanesulfonamide hydrochloride], the IC50 on ATM (setting [2]) lay within 0.5 to 1 nM; against DNA-PK (20 μM ATP), 1 to 100 nM.
For `CC(C)NCCOc1ncc(-c2cc3c4c(cnc3cc2F)N(C)C(=O)C42CCC2)cc1NS(=O)(=O)C1CC1` [Example 365, N-(5-(7′-Fluoro-3′-methyl-2′-oxo-2′,3′-dihydrospiro[cyclobutane-1,1′-pyrrolo[2,3-c]quinolin]-8′-yl)-2-(2-(isopropylamino)ethoxy)pyridin-3-yl)cyclopropanesulfonamide hydrochloride], the IC50 against ATM (setting [2]) and against DNA-PK (20 μM ATP) was 1 to 100 nM each time.
Take `CC(C)NCCOc1ncc(-c2cc3c4c(cnc3cc2F)N(C)C(=O)C42CCC2)cc1NS(=O)(=O)C(C)(C)C` [Example 366, N-(5-(7′-Fluoro-3′-methyl-2′-oxo-2′,3′-dihydrospiro[cyclobutane-1,1′-pyrrolo[2,3-c]quinolin]-8′-yl)-2-(2-(isopropylamino)ethoxy)pyridin-3-yl)-2-methylpropane-2-sulfonamide]: the IC50 was in the range of 1 to 100 nM against ATM (setting [2]) and 0.5 to 1 nM at DNA-PK (20 μM ATP).
For `CC(C)NCCOc1ncc(-c2cc3c4c(cnc3cc2F)N(C)C(=O)C42CCC2)cc1NS(=O)(=O)C1(C)CC1` [Example 367, N-(5-(7′-Fluoro-3′-methyl-2′-oxo-2′,3′-dihydrospiro[cyclobutane-1,1′-pyrrolo[2,3-c]quinolin]-8′-yl)-2-(2-(isopropylamino)ethoxy)pyridin-3-yl)-1-methylcyclopropane-l-sulfonamide], the IC50 against ATM (setting [2]) and at DNA-PK (20 μM ATP) was 1 to 100 nM each time.
Consider `CC(C)NCCOc1ncc(-c2cc3c4c(cnc3cc2F)N(C)C(=O)C42CCC2)cc1NS(=O)(=O)N(C)C` [Example 369, 8′-{5-[(Dimethylsulfamoyl)amino]-6-{2-[(propan-2-ylamino]ethoxy′}pyridin-3-yl}-7′-fluoro-3′-methyl-2′,3′-dihydrospiro [cyclobutane-1,1′-pyrrolo[2,3-c]quinoline]-2′-one hydrochloride], for which the IC50 on ATM (setting [2]) is 1 to 100 nM; on DNA-PK (20 μM ATP), 0.5 to 1 nM.
Turning to `CC(C)NCCOc1ncc(-c2cc3c4c(cnc3cc2F)N(C)C(=O)C42CCC2)cc1NS(=O)(=O)N1CCC1` [Example 370, N-(5-(7′-Fluoro-3′-methyl-2′-oxo-2′,3′-dihydrospiro [cyclobutane-1,1′-pyrrolo[2,3-c]quinolin]-8′-yl)-2-(2-(isopropylamino)ethoxy)pyridin-3-yl)azetidine-1-sulfonamide], the IC50 against ATM (setting [2]) and on DNA-PK (20 μM ATP) was 1 to 100 nM each time.
On to `CC(C)NCCOc1ncc(-c2cc3c4c(cnc3cc2F)N(C)C(=O)C42CCC2)cc1NS(=O)(=O)N1CC(F)C1` [Example 371, 3-Fluoro-N-(5-(7′-fluoro-3′-methyl-2′-oxo-2′,3′-dihydrospiro[cyclobutane-1,1′-pyrrolo[2,3-c]quinolin]-8′-yl)-2-(2-(isopropylamino)ethoxy)pyridin-3-yl)azetidine-1-sulfonamide], for which the IC50 on ATM (setting [2]) and against DNA-PK (20 μM ATP) was 1 to 100 nM each time.
Turning to `CC(C)NCCOc1ncc(-c2cc3c4c(cnc3cc2F)N(C)C(=O)C42CCC2)cc1NS(=O)(=O)N1CCOCC1` [Example 373, N-(5-(7′-Fluoro-3′-methyl-2′-oxo-2′,3′-dihydrospiro [cyclobutane-1,1′-pyrrolo [2,3-c]quinolin]-8′-yl)-2-(2-(isopropylamino)ethoxy)pyridin-3-yl)morpholine-4-sulfonamide hydrochloride], the IC50 against ATM (setting [2]) and on DNA-PK (20 μM ATP) was 1 to 100 nM each time.
For the compound `CC(C)NCCOc1ncc(-c2cc3c4c(cnc3cc2F)N(C)C(=O)C42CCC2)cc1NS(=O)(=O)CCN(C)C` [Example 375, 2-(Dimethylamino)-N-(5-(7′-fluoro-3′-methyl-2′-oxo-2′,3′-dihydrospiro[cyclobutane-1,1′-pyrrolo[2,3-c]quinolin]-8′-yl)-2-(2-(isopropylamino)ethoxy)pyridin-3-yl)ethane-1-sulfonamide hydrochloride], the IC50 against ATM (setting [2]) and against DNA-PK (20 μM ATP) was 1 to 100 nM each time.
Consider `CN(C)CCCOc1ncc(-c2ccc3ncc4c(c3c2)[C@]2(C[C@@H](O)C2)C(=O)N4C)cc1NS(C)(=O)=O` [Example 383, trans-N-(2-(3-(Dimethylamino)propoxy)-5-(3-hydroxy-3′-methyl-2′-oxo-2′,3′-dihydrospiro[cyclobutane-1,1′-pyrrolo[2,3-c]quinolin]-8′-yl)pyridin-3-yl)methanesulfonamide], for which the IC50 on ATM (setting [2]) and against DNA-PK (20 μM ATP) was 1 to 100 nM in each case.
With `CO[C@H]1C[C@@]2(C1)C(=O)N(C)c1cnc3ccc(-c4cnc(OCCNC(C)C)c(NS(C)(=O)=O)c4)cc3c12` [Example 384, trans-N-(2-(2-(Isopropylamino)ethoxy)-5-(3-methoxy-3′-methyl-2′-oxo-2,3′-dihydrospiro[cyclobutane-1,1′-pyrrolo[2,3-c]quinolin]-8′-yl)pyridin-3-yl)methanesulfonamide hydrochloride], the IC50 against ATM (setting [2]) is 1 to 100 nM; against DNA-PK (20 μM ATP), below 0.5 nM.
